Results reported in publication PMC9692703 (2022).

Key:
[1] = test system: Adenosine aptamer (Aptade), 4 bp (DNA, aptamer) ACCTGGGGGAGTATTGCGGAGGAAGGT; assay: ThT fluorescence enhancement; conditions: 100 mM NaCl, 10 mM MgCl2; 10 mM PB pH 7; 100 nM aptamer
[2] = test system: A30/T30 duplex (DNA, duplex) AAAAAAAAAAAAAAAAAAAAAAAAAAAAAA/TTTTTTTTTTTTTTTTTTTTTTTTTTTTTT; assay: SGI staining fluorescence; conditions: 100 mM NaCl; 10 mM PB pH 7; 100 nM DNA, 0.5x SGI

binding [1]	binding [2]	Structure (SMILES)
yes		Cc1ccc2c(c1)sc(-c1ccc(N(C)C)cc1)[n+]2C
	yes	CCCN(CCCN(C)C)c1cc(C=C2Sc3ccccc3N2C)c2ccccc2[n+]1-c1ccccc1
